What was measured:
Test in all cases: MIC agar dilution test
Assay type in all cases: cell-based
Streptococcus mutans = conditions: Experimental 1; Caso-Agar, pH 7 (+/−0.2)
Description: (§1) For testing the inhibition of bacteria, Composition 6 from Table 1 above was diluted in butylpolyglycol and added in different concentrations to liquid Caso-Agar at 50° C. and is buffered to pH 7 (+/−0.2). For testing the inhibition of yeast and mold, the Composition 6 was diluted in butylpolyglycol and added in different concentrations to liquid Sabouraud-4% Dextrose-Agar at 50° C. and is buffered to pH 5.6 (+/−0.2). Each of the solutions is poured into a petri-dish and inoculated with the same amount of bacteria, yeast or mold respectively. The minimum inhibitory concentration (MIC) is the lowest concentration of Composition 6 that inhibits the growth of the respective microorganism where the next lowest dilution fails to inhibit the growth of said microorganism.

Brevibacterium linens = conditions: Experimental 1; Caso-Agar, pH 7 (+/−0.2)
Description: as §1

Cornyebacterium jeikeium = conditions: Experimental 1; Caso-Agar, pH 7 (+/−0.2)
Description: as §1

Cornyebacterium xerosis = conditions: Experimental 1; Caso-Agar, pH 7 (+/−0.2)
Description: as §1

Malassezia pachydermatis = conditions: Experimental 1; Sabouraud-4% Dextrose-Agar, pH 5.6 (+/−0.2)
Description: as §1

Staph. Epidermis = conditions: Experimental 1; Caso-Agar, pH 7 (+/−0.2)
Description: as §1

Malassezia sympiodalis = conditions: Experimental 1; Sabouraud-4% Dextrose-Agar, pH 5.6 (+/−0.2)
Description: as §1

Malassezia furfur = conditions: Experimental 1; Sabouraud-4% Dextrose-Agar, pH 5.6 (+/−0.2)
Description: as §1

Aspergillus brasiliensis = conditions: Experimental 1; Sabouraud-4% Dextrose-Agar, pH 5.6 (+/−0.2)
Description: as §1
(§2) A similar experiment was carried out versus Experimental 1. The composition employed in this second experiment is almost identical in composition to Composition 6 from Table 1 above, differing only slightly in the exact levels of the components. Composition 6a is according to the first aspect of the present invention. Here, a comparison is made versus the efficacy of phenoxyethanol, alone and in combination with composition 6a.

Aspergillus terreus = conditions: Experimental 1; Sabouraud-4% Dextrose-Agar, pH 5.6 (+/−0.2)
Description: as §1, §2

Citrobacter freundii = conditions: Experimental 1; Caso-Agar, pH 7 (+/−0.2)
Description: as §1, §2

Pseudomonas aeruginosa = conditions: Experimental 1; Caso-Agar, pH 7 (+/−0.2)
Description: as §1, §2

Enterobacter aerogenes = conditions: Experimental 1; Caso-Agar, pH 7 (+/−0.2)
Description: as §1, §2

Enterobacter gergovia = conditions: Experimental 1; Caso-Agar, pH 7 (+/−0.2)
Description: as §1, §2

Saccharomyces cerevisiae = conditions: Experimental 1; Sabouraud-4% Dextrose-Agar, pH 5.6 (+/−0.2)
Description: as §1, §2

Staphylococcus aureus = conditions: Experimental 1; Caso-Agar, pH 7 (+/−0.2)
Description: as §1, §2

Penicillium funicolosium = conditions: Experimental 1; Sabouraud-4% Dextrose-Agar, pH 5.6 (+/−0.2)
Description: as §1, §2

Candida albicans = conditions: Experimental 1; Sabouraud-4% Dextrose-Agar, pH 5.6 (+/−0.2)
Description: as §1, §2

Escherichia coli = conditions: Experimental 1; Caso-Agar, pH 7 (+/−0.2)
Description: as §1, §2

Fusarium solani = conditions: Experimental 1; Sabouraud-4% Dextrose-Agar, pH 5.6 (+/−0.2)
Description: as §1, §2

Penicillium minioluteum = conditions: Experimental 1; Sabouraud-4% Dextrose-Agar, pH 5.6 (+/−0.2)
Description: as §1, §2

Candida parapsilosis = conditions: Experimental 1; Sabouraud-4% Dextrose-Agar, pH 5.6 (+/−0.2)
Description: as §1, §2

Klebsiella pneumoniae = conditions: Experimental 1; Caso-Agar, pH 7 (+/−0.2)
Description: as §1, §2

In the case of Sorbitan Caprylate, the MIC (Streptococcus mutans) was 2000 ppm, the MIC (Brevibacterium linens) was 4000 ppm and the MIC (Cornyebacterium jeikeium) was 4000 ppm. The MIC (Cornyebacterium xerosis) was 2000 ppm, the MIC (Malassezia pachydermatis) was 400 ppm and the MIC (Staph. Epidermis) was 10000 ppm. For the same substance, the MIC (Malassezia sympiodalis) was 400 ppm, the MIC (Malassezia furfur) was 600 ppm and the MIC (Aspergillus brasiliensis) was 800 ppm. It also gave an MIC (Aspergillus terreus) of 800 ppm, an MIC (Citrobacter freundii) of 10000 ppm and an MIC (Pseudomonas aeruginosa) of 10000 ppm. The MIC (Enterobacter aerogenes) was 10000 ppm, the MIC (Enterobacter gergovia) was 10000 ppm and the MIC (Saccharomyces cerevisiae) was 600 ppm. The MIC (Staphylococcus aureus) was 800 ppm, the MIC (Penicillium funicolosium) was 400 ppm and the MIC (Candida albicans) was 800 ppm. For the same substance, the MIC (Escherichia coli) was 10000 ppm, the MIC (Fusarium solani) was 800 ppm and the MIC (Penicillium minioluteum) was 400 ppm. It also gave an MIC (Candida parapsilosis) of 800 ppm and an MIC (Klebsiella pneumoniae) of 800 ppm.

Source: patent publication US10874599B2, “Composition for inhibiting micro-organisms” (Clariant International Ltd., priority 2016, dated 2020)
